Legend:
[1] = tested on: MCF-7 (breast) cancer cells; experiment: MTT growth inhibition assay, MCF-7; assay type: cell-based; settings: MCF-7 cells, 72 h, ± standard error, read-out: Growth Inhibition Concentration, GI50
Protocol: (§1) The Schiff bases and their organotin(IV) compounds were screened for in vitro cytotoxicity against a panel of 12 cancer cell lines: EJ-28 (muscle invasive bladder), RT-112 (minimum-invasive bladder), HT29 (colon), U87 and SJ-G2 (glioblastoma), MCF-7 (breast), A2780 (ovarian), H460 (lung), A431 (skin), DU145 (prostate), BE2-C (neuroblastoma), MIA (pancreatic) and one normal breast cell line (MCF-10A) using the MTT metabolic assay (Figure 6). After 72 h of incubation, a dose-dependent […] effect towards the cancer cell lines was measured at very low micromolar (µM) concentrations of the compounds. The growth inhibition concentration of the Schiff bases and their organotin(IV) compounds required to inhibit 50% cell proliferation relative to the cells that were treated with DMSO (control) are given in Table 2. The stability of these compounds was assessed in DMSO as well as in a mixture of DMSO-H2O. The absorbance obtained from UV-vis spectroscopy analysis was monitored for 72 h, and an unchanged pattern in the spectra was indicative that the compounds were stable in both the solvent systems tested.
(§2) For HT29 (colon), U87 and SJ-G2 (glioblastoma), MCF-7 (breast), A2780 (ovarian), H460 (lung), A431 (skin), Du145 (prostate), BE2-C (neuroblastoma), MIA (pancreas) cell lines and one normal breast cell line, MCF-10A (normal breast), the MTT assays were performed using the following method:
(§3) Stock solutions were prepared as follows and stored at −20 °C: Trial compounds were stored as 10 mM solutions in DMSO. All cell lines were cultured in a humidified atmosphere 5% CO2 at 37 °C. The cancer cell lines were maintained in Dulbecco’s modified Eagle’s medium (DMEM) (Trace Biosciences) supplemented with 10% foetal bovine serum, 10 mM sodium bicarbonate, penicillin (100 IU/mL), streptomycin (100 μg/mL) and glutamine (4 mM). The normal cell line, MCF-10A was cultured in DMEM:F12 (1:1) cell culture media, 5% heat inactivated horse serum, supplemented with penicillin (50 IU/mL), streptomycin (50 μg/mL), 20mM Hepes, L-glutamine (2 mM), epidermal growth factor (20 ng/mL), hydrocortisone (500 ng/mL), cholera toxin (100 ng/mL) and insulin (10 μg/mL).
(§4) Cells in logarithmic growth were transferred to 96-well plates. Cytotoxicity was determined by plating cells in duplicate in 100 μL medium at a density of 2500–4000 cells/well. On day 0 (24 h after plating), when the cells were in logarithmic growth, 100 μL medium, with or without the test agent, was added to each well. After 72 h drug exposure, growth inhibitory effects were evaluated using the MTT (3-[4,5-dimethylthiazol-2-yl]-2,5-diphenyltetrazolium bromide) assay and absorbance read at 540 nm. Percentage growth inhibition was determined at a fixed drug concentration of 25 μM. A value of 100% was indicative of complete cell growth inhibition. Those analogues showing appreciable percentage growth inhibition underwent further dose-response analysis allowing for the calculation of a GI50 value. This value is the drug concentration at which cell growth is 50% inhibited based on the difference between the optical density values on day 0 and those at the end of drug exposure.

[2] = tested on: U87 (glioblastoma) cancer cells; experiment: MTT growth inhibition assay, U87; assay type: cell-based; settings: 72 h, ± standard error, read-out: Growth Inhibition Concentration, GI50
Protocol: as §1, §2, §3, §4

RT-112 cells = experiment: Intracellular ROS measurement (DCFH-DA); assay type: cell-based, human; settings: 24 h, DMSO as control
Source text: Two compounds with the most promising bioactivity, Ph2Sn(S2MoVa) and Ph2Sn(S4MoVa), were selected for further cell apoptosis studies, in order to evaluate the primary damage to biological macromolecules through redox reactions, particularly via formation of ROS [68]. ROS are highly reactive molecules/radicals (O2, O2^•, H2O2, HO^•) that are continuously generated during aerobic metabolism, but when in excessive amounts, can lead to protein and DNA oxidation, protein cross-linking and cell death. Estimation of the levels of ROS in cell culture is an important step towards better understanding the mechanisms that lead to cell death or disease processes. […] ROS production was measured using the ROS-detecting fluorescent dye DCFH-DA and DMSO was used as a control. Both compounds were able to induce ROS production in RT-112 cell lines after 24 h.
Intracellular ROS measurements were used to assess antioxidant or ROS activity. Measurements were performed using a fluorescence plate reader following to the procedure outlines in the ROS detection kit (OxiSelect™). […] The cells were then read on a standard Infinite M200 fluorescence microplate reader (Tecan, Männedorf, Switzerland). The ROS or antioxidant content in unknown samples was determined by comparison with the predetermined DCF standard curve.

| Substance | GI50 [1] | GI50 [2] | ROS generation (RT-112 cells) |
| --- | --- | --- | --- |
| Diphenyltin(IV) [Ph2Sn(S2MoVa), Diphenyltin(IV) [S-2-Methybenzyl-β-N-(2-hydroxy-3-methoxybenzylmethylene) dithiocarbazate]] | 1400 ± 120 nM | 4400 ± 1700 nM | stimulated ROS generation |
| Diphenyltin(IV) [Ph2Sn(S4MoVa), Diphenyltin(IV) [S-4-Methybenzyl-β-N-(2-hydroxy-3-methoxybenzylmethylene) dithiocarbazate]] | 820 ± 140 nM | 1300 ± 400 nM | stimulated ROS generation |
